This assay concerns myocardial cells (death induced from partial myocardial ischemia). As to the kind of experiment: Embodiment 1: myocardial infarct size after 1 h ligature of the left descending coronary branch and 1 h reperfusion (TTC staining). The class given is in vivo, Crl:CD(SD) SPF rats.

Molecules are shown by their SMILES.

Take `CC(=O)Oc1ccccc1C(=O)O` [Aspirin]: for the setting “Embodiment 1, Table 1, STA-2 alone in high dose or in low dose”, the “effect on myocardial infarct size compared with the blank control group (in words)” value is “did not produce any statistically meaningful effects”. In addition, the “Myocardial Infarction Percentage (%)” value (rat, tube-fed once daily 7 days + IP 1/3 dose after ligation, isosorbide dinitrate 18.75 mg/Kg, STA-2 low dose 250 mg/Kg, Aspirin 8.3 mg/Kg, mean ± SEM) was determined as 14.75 ± 2.8%.
For the compound `O=[N+]([O-])O[C@H]1CO[C@H]2[C@@H]1OC[C@H]2O[N+](=O)[O-]` [isosorbide dinitrate], under “rat, in vivo”, the “effect on myocardial infarct size compared with the blank control group (in words)” value was “significant reduction in myocardial infarct size”.

The values are drawn from patent publication US9446018B2, “Pharmaceutical composition for treating or preventing angina or myocardial infarction induced by myocardial ischemia” (SINPHAR TIAN-LI PHARMACEUTICAL CO., LTD. (HANGZHOU), priority 2009, dated 2016).
